Patent publication US20260116921A1, “PEPTIDE INHIBITORS OF INTERLEUKIN-23 RECEPTOR AND THEIR USE TO TREAT INFLAMMATORY DISEASES” (priority 2018, published 2026)
Read-outs that look alike come from different tables or passages of the source. Bridge positions count the residues as written; N and C are the ends. Square brackets hold non-standard residues; d marks the D form. Peptide text beside a SMILES is read from it. Trp(7-Me) = Cc1cccc2c(C[C@H](N)C(=O)O)c[nH]c12; 2Nal = N[C@@H](Cc1ccc2ccccc2c1)C(=O)O; AEF = NCCOc1ccc(C[C@H](N)C(=O)O)cc1; Cit = NC(=O)NCCC[C@H](N)C(=O)O; αMeL = CC(C)C[C@](C)(N)C(=O)O; Pen = CC(C)(S)[C@H](N)C(=O)O; αMeK = C[C@](N)(CCCCN)C(=O)O; Aib = CC(C)(N)C(=O)O; βAla = NCCC(=O)O

Tests used:
IL-23R = target: T1, IL-23R (Homo sapiens, UniProt Q5VWK5); assay: DB cells IL23R pSTAT3 cell assay (pStat3 HTRF); format: cell-based
T1 sequence (Q5VWK5 24-629): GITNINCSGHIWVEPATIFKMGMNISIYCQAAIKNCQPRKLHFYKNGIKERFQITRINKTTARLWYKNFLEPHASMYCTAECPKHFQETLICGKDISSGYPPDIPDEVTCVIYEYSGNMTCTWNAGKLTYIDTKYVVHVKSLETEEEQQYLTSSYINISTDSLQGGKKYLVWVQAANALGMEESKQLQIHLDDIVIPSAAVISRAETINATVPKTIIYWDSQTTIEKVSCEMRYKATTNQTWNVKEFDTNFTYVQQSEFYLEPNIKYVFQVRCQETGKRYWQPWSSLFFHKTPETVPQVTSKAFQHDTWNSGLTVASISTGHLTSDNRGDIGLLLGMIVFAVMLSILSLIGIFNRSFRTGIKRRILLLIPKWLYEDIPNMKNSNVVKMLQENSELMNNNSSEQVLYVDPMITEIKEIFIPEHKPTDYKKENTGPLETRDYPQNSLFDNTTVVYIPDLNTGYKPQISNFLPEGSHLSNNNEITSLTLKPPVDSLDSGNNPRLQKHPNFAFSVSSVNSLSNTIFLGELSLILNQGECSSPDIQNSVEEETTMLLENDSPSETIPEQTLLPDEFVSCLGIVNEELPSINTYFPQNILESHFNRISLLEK
Method in brief: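 DB cells (5×10E5/well, RPMI-1640 + 10% FBS) stimulated with 0.5 nM final IL-23 plus serially diluted test peptides for 30 min at 37 °C, 5% CO2. Phospho-STAT3 (Tyr705) in lysates measured by HTRF using a two-plate protocol.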

NK cells = assay: NK cell based assay (IL-23/IL-18-induced IFNγ, Quantikine ELISA); details: human primary NK cells, IL-23 at EC50 to EC75 + IL-18 10 ng/mL, IFNγ after 20 to 24 hours
Method: killer (NK) cells, purified from human peripheral blood of healthy donors by negative selection (Miltenyi Biotech, Cat #130-092-657), were cultured in complete media (RPMI 1640 containing […], L-glutamine and penicillin-streptomycin) in the presence of IL-2 (RnD, Cat #202-IL-010/CF) at 25 ng/mL. After 7 days, cells were centrifuged, and resuspended in complete media at IE6 cells/mL. […] After 20 to 24 hours, IFNγ in the supernatant was quantified using Quantikine ELISA (RnD, Cat #DIF50).

in vitro [1] = format: in vitro ADME; set-up: half-life: dose or concentration left out as unconfirmed; details: pH 6.8, 37° C., § matrix is 100 fold dilution of standard SIF concentration; for half-life: simulated intestinal fluid (SIF) with pancreatin, read-out: SIF t½ (converted); for SIF t½: simulated intestinal fluid, pancreatin
Method: SIF was prepared by adding 6.8 g of monobasic potassium phosphate and 10.0 g of pancreatin to 1.0 L of water. After dissolution, the pH was adjusted to 6.8 using NaOH. DMSO stocks (2 mM) were first prepared for the test compounds. Aliquots of the DMSO solutions were dosed into 6 individual tubes, each containing 0.5 mL of SIF, which is pre-warmed to 37° C. The final test compound concentration was 20 M. The vials were kept in a benchtop Thermomixer® for the duration of the experiment. At each timepoint (0, 5, 10, 20, 40, 60, or 360 minutes or 24 hours), 1.0 mL of acetonitrile containing 1% formic acid was added to one vial to terminate the reaction. Samples were stored at 4° C. until the end of the experiment. After the final timepoint is sampled, the tubes were mixed and then centrifuged at 3,000 rpm for 10 minutes. Aliquots of the supernatant were removed, diluted 1:1 into distilled water containing internal standard, and analyzed by LCMS/MS. Percent remaining at each timepoint was calculated based on the peak area response ratio of test to compound to internal standard. Time 0 was set to 100%, and all later timepoints were calculated relative to time 0. Half-lives were calculated by fitting to a first-order exponential decay equation using Graphpad.

in vitro [2] = details: human, 20% fecal homogenate (supernatant), anaerobic, pH 6.8
in vitro [3] = details: cynomolgus monkey, 20% fecal homogenate (supernatant), anaerobic, pH 6.8
Method: Fecal homogenate (20%) was prepared by adding 4 mL of growth medium (1 liter contains 2 g peptone water powder, 2 g yeast extract, 0.1 g NaCl, 0.04 g KH2PO4, 0.01 g CaCl2·6H2O, 0.01 g MgSO4·7H2O, 2 mL Tween 80, 0.5 g bile salts, 0.5 g L-cysteine HCl, 2 g NaHCO3, and 10 μL Vitamin K, pH adjusted to 6.8, and sterilized by filtration through a 0.22 μm filter) to every gram of feces (pooled freshly collected human or cynomolgus monkey feces). The suspension was vortexed to break up large clumps, and homogenized using a bead mill homogenizer. Centrifuged the homogenate at 2800×g for 15 min. The supernatant is taken out and used for incubations. DMSO stocks (10 mM) were first prepared for the test compounds. Incubations were performed in an anaerobic chamber conditioned at 37° C. Aliquots of the DMSO solutions were dosed into 1.0 mL aliquots of 20% fecal homogenate, which are pre-warmed to 37° C. The final test compound concentration was 20 μM. At each timepoint (0, 20 min, 1, 3, 6, or 24 hours), 100 μL aliquot of each incubation mixture is taken out and added to separate tubes containing 300 μL of 50% acetonitrile/50% methanol and an internal standard to terminate the reaction. Samples were taken out of the anaerobic chamber and stored at 4° C. until the end of the experiment. After the final timepoint is sampled, the tubes were mixed and then centrifuged at 3,000 rpm for 10 minutes. Aliquots of the supernatant were removed, diluted 1:1 into distilled water containing 0.1% formic acid, and analyzed by LC/MS/MS. Percent remaining at each timepoint was calculated based on the peak area response ratio of test to compound to internal standard. Time 0 was set to 100%, and all later timepoints were calculated relative to time 0. Half-lives were calculated by fitting to a first-order exponential decay equation using Graphpad or Excel.

in vitro [4] = details: both, SD, rat, plasma (EDTA)
[5] = Stability in simulated gastric fluid (SGF); format: in vitro ADME; details: pH=2, 37° C., 20 μM peptide; for half-life at 20 μM: pig (pepsin), simulated gastric fluid (SGF) with porcine pepsin, read-out: SGF t½ (converted); for SGF t½: porcine pepsin
Method: SGF was prepared by adding 20 mg NaCl, 32 mg porcine pepsin (MP Biochemicals, catalog 02102599), and 70 μl HCl to 10 ml water (final pH=2). Aliquots of SGF (0.5 ml each) were pre-warmed at 37° C. To start the reaction, 1 μl of peptide stock solution (10 mM in DMSO) was added to 0.5 ml SGF and thoroughly mixed such that the final peptide concentration was 20 μM. The reactions were incubated at 37° C. with gentle shaking. At each time point (0, 15, 30, 60 min) 50 μl aliquots were removed and added to 200 ul acetonitrile containing 0.1% formic acid to quench the reaction. Samples are stored at 4° C. until the end of the experiment and centrifuged at 10,000 rpm for 5 minutes. Aliquots of the supernatant were removed, diluted 1:1 into distilled water containing internal standard, and analyzed by LCMS/MS. Percent remaining at each timepoint was calculated based on the peak area response ratio of test to compound to internal standard. Time 0 was set to 100%, and all later timepoints were calculated relative to time 0. Half-lives were calculated by fitting to a first-order exponential decay equation using GraphPad.

[6] = Table E3, DB cells, IL-23 0.5 nM, 30 minutes at 37° C., read-out: pStat3 HTRF (IC50)

| SMILES | IC50 (IL-23R; [6]) | IC50 (NK cells) | half-life (in vitro [1]) | half-life at 20 μM (in vitro [2]) | half-life at 20 μM (in vitro [3]) | half-life at 20 μM (in vitro [4]) | IC50 (IL-23R) | half-life at 20 μM [5] | SIF t½ (in vitro [1]) | SGF t½ [5] |
| --- | --- | --- | --- | --- | --- | --- | --- | --- | --- | --- |
| CC(=O)NCCCC[C@@H]1NC(=O)[C@H](Cc2c[nH]c3c(C)cccc23)NC(=O)[C@H]([C@@H](C)O)NC(=O)[C@H](CC(N)=O)NC(=O)[C@@H](NC(C)=O)C(C)(C)SSC(C)(C)[C@@H](C(=O)N[C@@H](Cc2ccc(OCCN)cc2)C(=O)N[C@@H](Cc2ccc3ccccc3c2)C(=O)N[C@@](C)(CCCCN)C(=O)N[C@@H](CCC(=O)O)C(=O)NCCC(=O)NCCC(N)=O)NC1=O [compound 273] | 1 to 10 nM | < 10 nM | 8 h | > 24 h | 12 h | > 24 h | – | – | – | – |
| CC(=O)NCCCC[C@H](NC(=O)[C@](C)(CC(C)C)NC(=O)[C@H](Cc1ccc2ccccc2c1)NC(=O)[C@H](Cc1ccc(OCCN)cc1)NC(=O)[C@H]1NC(=O)[C@H](CCC(N)=O)NC(=O)[C@H](Cc2c[nH]c3c(F)cccc23)NC(=O)[C@H]([C@@H](C)O)NC(=O)[C@H](CC(N)=O)NC(=O)[C@@H](NC(C)=O)C(C)(C)SSC1(C)C)C(=O)N[C@@H](CC(N)=O)C(=O)N[C@@H](CC(N)=O)C(N)=O [compound 8] | – | – | – | – | – | – | 10 to 100 nM | 15 h | 24 h | – |
| CC(=O)NCCCC[C@H](NC(=O)[C@](C)(CCCN)NC(=O)[C@H](Cc1ccc2ccccc2c1)NC(=O)[C@H](Cc1ccc(OCCN)cc1)NC(=O)[C@H]1NC(=O)[C@H](CCC(N)=O)NC(=O)[C@H](Cc2c[nH]c3c(C)cccc23)NC(=O)[C@H]([C@@H](C)O)NC(=O)[C@H](CC(N)=O)NC(=O)[C@@H](NC(C)=O)C(C)(C)SSC1(C)C)C(=O)N[C@@H](CC(N)=O)C(=O)NCCC(N)=O [compound 278] | < 1 nM | < 10 nM | 19 h | > 24 h | 15 h | > 24 h | – | – | – | – |
| CC(=O)NCCCC[C@H](NC(=O)[C@](C)(CC(C)C)NC(=O)[C@H](Cc1c[nH]c2cc(F)ccc12)NC(=O)[C@H](Cc1ccc(OCCN)cc1)NC(=O)[C@H]1NC(=O)[C@H](CCC(N)=O)NC(=O)[C@H](Cc2c[nH]c3ccccc23)NC(=O)[C@H]([C@@H](C)O)NC(=O)[C@H](CC(N)=O)NC(=O)[C@@H](NC(C)=O)C(C)(C)SSC1(C)C)C(=O)N[C@@H](CC(N)=O)C(=O)N[C@@H](CC(N)=O)C(N)=O [compound 14] | – | – | 9 h | – | – | – | 10 to 100 nM | – | – | 24 h |
| CC(=O)NCCCC[C@H](NC(=O)[C@](C)(CC(C)C)NC(=O)[C@H](Cc1ccc2ccccc2c1)NC(=O)[C@H](Cc1ccc(OCCN)cc1)NC(=O)[C@H]1NC(=O)[C@H](CCC(N)=O)NC(=O)[C@H](Cc2c[nH]c3ccc(F)cc23)NC(=O)[C@H]([C@@H](C)O)NC(=O)[C@H](CC(N)=O)NC(=O)[C@@H](NC(C)=O)C(C)(C)SSC1(C)C)C(=O)N[C@@H](CC(N)=O)C(=O)N[C@@H](CC(N)=O)C(N)=O [compound 7] | – | – | – | – | – | – | 10 to 100 nM | 12 h | 24 h | – |
| CC(=O)NCCCC[C@@H]1NC(=O)[C@H](Cc2c[nH]c3c(C)cccc23)NC(=O)[C@H]([C@@H](C)O)NC(=O)[C@H](CC(N)=O)NC(=O)[C@@H](NC(C)=O)C(C)(C)SSC(C)(C)[C@@H](C(=O)N[C@@H](Cc2ccc(OCCN)cc2)C(=O)N[C@@H](Cc2ccc3ccccc3c2)C(=O)N[C@@](C)(CCCCN)C(=O)N[C@@H](CCCCNC(C)=O)C(=O)N[C@@H](CO)C(=O)NCCC(N)=O)NC1=O [compound 271] | 1 to 10 nM | < 10 nM | 22 h | > 24 h | > 24 h | > 24 h | – | – | – | – |
| CC(=O)NCCCC[C@H](NC(=O)[C@](C)(CC(C)C)NC(=O)[C@H](Cc1ccc2ccccc2c1)NC(=O)[C@H](Cc1ccc(OCCN)cc1)NC(=O)[C@H]1NC(=O)[C@H](CCC(N)=O)NC(=O)[C@H](Cc2c[nH]c3cc(Cl)ccc23)NC(=O)[C@H]([C@@H](C)O)NC(=O)[C@H](CC(N)=O)NC(=O)[C@@H](NC(C)=O)C(C)(C)SSC1(C)C)C(=O)N[C@@H](CC(N)=O)C(=O)N[C@@H](CC(N)=O)C(N)=O [compound 2] | – | – | – | – | – | – | 10 to 100 nM | 13 h | 24 h | – |
| CC(=O)NCCCC[C@H](NC(=O)[C@](C)(CC(C)C)NC(=O)[C@H](Cc1ccc2ccccc2c1)NC(=O)[C@H](Cc1ccc(OCCN)cc1)NC(=O)[C@H]1NC(=O)[C@H](CCC(N)=O)NC(=O)[C@H](Cc2c[nH]c3c(C)cccc23)NC(=O)[C@H]([C@@H](C)O)NC(=O)[C@H](CC(N)=O)NC(=O)[C@@H](NC(C)=O)C(C)(C)SSC1(C)C)C(=O)N[C@H](C(=O)NCCC(N)=O)[C@@H](C)O [compound 217] | 1 to 10 nM | 11 to 100 nM | – | > 24 h | > 24 h | 2 h | – | – | – | – |
| CC(=O)NCCCC[C@H](NC(=O)[C@](C)(CC(C)C)NC(=O)[C@H](Cc1ccc2ccccc2c1)NC(=O)[C@H](Cc1ccc(OCCN)cc1)NC(=O)[C@H]1NC(=O)[C@H](CCC(N)=O)NC(=O)[C@H](Cc2c[nH]c3c(C)cccc23)NC(=O)[C@H]([C@@H](C)O)NC(=O)[C@H](CC(N)=O)NC(=O)[C@@H](NC(C)=O)C(C)(C)SSC1(C)C)C(=O)N[C@@H](CC(C)C)C(=O)NCCC(N)=O [compound 208] | 1 to 10 nM | < 10 nM | – | > 24 h | > 24 h | 2 h | – | – | – | – |
| CC(=O)NCCCC[C@H](NC(=O)[C@](C)(CCCCN)NC(=O)[C@H](Cc1ccc2ccccc2c1)NC(=O)[C@H](Cc1ccc(OCCN)cc1)NC(=O)[C@H]1NC(=O)[C@](C)(CC(C)C)NC(=O)[C@H](Cc2c[nH]c3c(C)cccc23)NC(=O)[C@H]([C@@H](C)O)NC(=O)[C@H](CC(N)=O)NC(=O)[C@@H](NC(C)=O)C(C)(C)SSC1(C)C)C(=O)N[C@@H](CC(N)=O)C(=O)NCCC(N)=O [compound 235] (Ac-[Pen]NT[Trp(7-Me)][αMeL][Pen][AEF][2Nal][αMeK]K(Ac)N[βAla]-NH2; disulfide 1-6) | 1 to 10 nM | 11 to 100 nM | – | > 24 h | > 24 h | 5 h | – | – | – | – |
| CC(=O)NCCCC[C@H](NC(=O)[C@](C)(CCCCN)NC(=O)[C@H](Cc1ccc2ccccc2c1)NC(=O)[C@H](Cc1ccc(OCCN)cc1)NC(=O)[C@H]1NC(=O)[C@H](CCCNC(N)=O)NC(=O)[C@H](Cc2c[nH]c3c(C)cccc23)NC(=O)[C@H]([C@@H](C)O)NC(=O)[C@H](CC(N)=O)NC(=O)[C@@H](NC(C)=O)C(C)(C)SSC1(C)C)C(=O)N[C@@H](CC(N)=O)C(=O)NC(C)(C)C(N)=O [compound 264] (Ac-[Pen]NT[Trp(7-Me)][Cit][Pen][AEF][2Nal][αMeK]K(Ac)N[Aib]-NH2; disulfide 1-6) | < 1 nM | < 10 nM | 18 h | > 24 h | > 24 h | > 24 h | – | – | – | – |
| CC(=O)NCCCC[C@H](NC(=O)[C@](C)(CC(C)C)NC(=O)[C@H](Cc1ccc2ccccc2c1)NC(=O)[C@H](Cc1ccc(OCCN)cc1)NC(=O)[C@H]1NC(=O)[C@H](CCC(N)=O)NC(=O)[C@H](Cc2c[nH]c3c(C)cccc23)NC(=O)[C@H]([C@@H](C)O)NC(=O)[C@H](CC(N)=O)NC(=O)[C@@H](NC(C)=O)C(C)(C)SSC1(C)C)C(=O)N(C)[C@@H](C)C(=O)NCCC(N)=O [compound 223] | > 100 nM | < 10 nM | – | > 24 h | > 24 h | 9 h | – | – | – | – |
| CC(=O)NCCCC[C@H](NC(=O)[C@](C)(CC(C)C)NC(=O)[C@H](Cc1c[nH]c2cc(Cl)ccc12)NC(=O)[C@H](Cc1ccc(OCCN)cc1)NC(=O)[C@H]1NC(=O)[C@H](CCC(N)=O)NC(=O)[C@H](Cc2c[nH]c3ccccc23)NC(=O)[C@H]([C@@H](C)O)NC(=O)[C@H](CC(N)=O)NC(=O)[C@@H](NC(C)=O)C(C)(C)SSC1(C)C)C(=O)N[C@@H](CC(N)=O)C(=O)N[C@@H](CC(N)=O)C(N)=O [compound 13] | – | – | 17 h | – | – | – | 1 to 10 nM | – | – | 24 h |
